# In US9217014B2, “Antifungal agents and uses thereof” (Cidara Therapeutics, Inc., priority 2011, dated 2015):
# Read-outs that look alike come from different tables or passages of the source. *1 amine or outer side, *2 acyl side, *3 side chain or, on linkers, in order; H or OH if unused. Where a SMILES comes first, the peptide text is derived from it. Bridges are numbered along the chain shown (N, C = ends). [ ]: non-standard residue; d: D form. The star is where a group is joined. pTerphenylCO(4''-OnC5H11) = CCCCCOc1ccc(-c2ccc(-c3ccc(C(=O)*)cc3)cc2)cc1; Orn(4R-OH,5R-OH) = O=C([C@H](C[C@@H](O)[C@@H](O)N[*:3])N[*:1])[*:2]; hTyr(3S-OH,4S-OH) = N[C@H](C(=O)O)[C@H](O)[C@@H](O)c1ccc(O)cc1; Pro(3S-OH,4S-Me) = C[C@H]1CN[C@H](C(=O)O)[C@H]1O; Hyp = O=C(O)[C@@H]1C[C@@H](O)CN1
# Columns and labels:
# [1] = Solubility in aqueous buffers of varying pH; format: physicochemical; conditions: ambient temperature, compound 1 as acetate salt
# Procedure: The solubility of compound 1 (acetate salt) was measured in aqueous buffers of varying pH to assess this compound's suitability for formulation in an aqueous carrier for administration by injection (e.g., intravenous or intramuscular injection).
# C. albicans R303 = experiment: mouse candidiasis infection model, IP administration, kidney fungal burden; format: in vivo
# Procedure: The objective of these studies was to evaluate the efficacy of test compounds in the mouse candidiasis infection model. Amounts of test articles are uncorrected.
# The strain, C. albicans R303 was transferred from frozen storage onto Sabauroud dextrose agar (SDA) plates and grown for ˜24 hr at 35° C. The inoculum was prepared by transferring colonies from the plate to phosphate buffered saline (PBS) and the concentration adjusted to approximately 10^6 CFU/mL with the aid of a spectrophotometer. The stock was diluted 1:9 to prepare the inoculum. Prior to each run the concentration was verified using the dilution plate count method.
# Female CD-1 mice were used in this study. The animals were approximately seven-weeks-old at the start of the study and weighed about 15-30 g.
# Mice were made neutropenic with IP injections of cyclophosphamide (150 mg/kg in 10 mL/kg) at 4 and 1 day before inoculation. Each animal was inoculated with the appropriate concentration by injecting 0.1 mL of inoculum into a tail vein. The test compounds were administered IP at 2 hr after infection.
# In a typical procedure, the kidneys were collected from four mice in control group 1 (untreated) at 2 hr after infection, and from another four mice in control group 2 (untreated) at 24 hr after infection. Kidneys were removed aseptically from each mouse and were combined in a sterile tube. An aliquot (2 mL) of sterile PBS was added to each tube and the contents homogenized with a tissue homogenizer (Polytron 3100). Serial dilutions of the tissue homogenates were conducted and 0.1 mL aliquots were spread on SDA plates and the plates incubated at 35° C. overnight. The CFU/kidneys were determined from colony counts. Data were analyzed using one-way ANOVA with either the Tukey-Kramer Multiple Comparisons Test or Dunnett Test (GraphPad InStat version 3.06, GraphPad Software, San Diego, Calif.).
# The data reported below are the average of four mice. Each run included a separate control and each is tabulated separately.
# [2] = Pharmacokinetics in beagle dogs, intravenous; format: in vivo; conditions: 1.4 mg/kg intravenous slow bolus, mean ± SEM, n = 4 beagle dogs
# Procedure: The test articles were administered to beagle dogs weighing approximately 6-10 kg. Each test article was dosed at 1.4 mg/kg in aqueous saline (with or without 0.5% Tween) over course of 1-10 minutes. […] The dogs were fasted at least 12 hours prior to each dosing and offered food after the 4-hour blood sample was taken; water was withheld for 1 hour prior to and 4 hours following each dosing event. The dose for each animal was based on its most recent body weight. The test article was injected intravenously via a catheter placed in the cephalic vein as a slow bolus.
# Blood was collected via the jugular vein. All blood samples (˜1 mL each) were collected into K3EDTA tubes. Following blood collection, the samples were immediately inverted several times and were held on wet ice pending centrifugation. The samples were centrifuged within ˜30 minutes of collection under refrigeration (˜5° C. for ˜10 minutes at ˜2000 g) to obtain plasma. The plasma was frozen immediately on dry ice after separation. The plasma samples were stored at approximately −70° C. until analysis.
# Plasma (100 μL) was precipitated with 400 μL of 0.1% formic acid in acetonitrile containing the internal standard (100 ng/mL pneumocandin). The samples were then capped and vortexed for about 30 seconds followed by centrifugation at 14,000 rpm at room temperature for 10 minutes. Following centrifugation 200 μL of supernatant was transferred to plastic autosampler vials containing 200 μL of 0.1% formic acid in water and vortexed. Samples were then analyzed by LCMSMS.
# All pharmacokinetic calculations were performed using WinNonlin version 4.1 (Pharsight Corp) by noncompartmental analysis.
# [3] = Solubility in non-aqueous solvents; format: physicochemical; conditions: organic solvent or mixture, compound 1 as acetate salt
# Procedure: The solubility of compound 1 (acetate salt) was also measured in non-aqueous solvents to assess this compound's suitability for formulation in non-aqueous carriers.
smiles,measurement,setting,value
"CCCCCOc1ccc(-c2ccc(-c3ccc(C(=O)N[C@H]4C[C@@H](O)[C@@H](O)NC(=O)[C@@H]5[C@@H](O)[C@@H](C)CN5C(=O)[C@H]([C@@H](C)O)NC(=O)[C@H]([C@H](O)[C@@H](O)c5ccc(O)cc5)NC(=O)[C@@H]5C[C@@H](O)CN5C(=O)[C@H]([C@@H](C)O)NC4=O)cc3)cc2)cc1 [anidulafungin, reference compound] ({pTerphenylCO(4''-OnC5H11)}-[Orn(4R-OH,5R-OH)]T[Hyp][hTyr(3S-OH,4S-OH)]T[Pro(3S-OH,4S-Me)]; lactam 1-C)",solubility,"[1]; aqueous buffer, pH 3 (0.01M formate buffer)",< 0.01 mg/mL
same,solubility,"[1]; aqueous buffer, pH 4.6 (0.1M acetate buffer)",< 0.01 mg/mL
same,solubility,"[1]; aqueous buffer, pH 5.6 (0.1M acetate buffer)",< 0.01 mg/mL
same,solubility,"[1]; aqueous buffer, pH 7.4 (0.1M phosphate buffer)",< 0.01 mg/mL
same,solubility,"[1]; aqueous buffer, pH 8.5 (0.01M TRIS buffer)",< 0.01 mg/mL
same,solubility,"[1]; saline or isotonic, 0.9% saline",< 0.01 mg/mL
same,solubility,"[1]; simulated gastric fluid, pH 1 (0.1M HCl)",< 0.01 mg/mL
same,log reduction at 1 mg/kg,"C. albicans R303; Candida albicans, R303, ip, 24 h, read-out: Difference from 24-h control, Fifth run, IP 1 mg/kg",2.07
same,log reduction at 1 mg/kg,"C. albicans R303; Candida albicans, R303, ip, 24 h, read-out: Difference from 24-h control, First run, IP 1 mg/kg",1.83
same,log reduction at 0.5 mg/kg,"C. albicans R303; Candida albicans, R303, ip, 24 h, read-out: Difference from 24-h control, Fourth run, IP 0.5 mg/kg",1.29
same,log reduction at 1.5 mg/kg,"C. albicans R303; Candida albicans, R303, ip, 24 h, read-out: Difference from 24-h control, Fourth run, IP 1.5 mg/kg",4.03
same,log reduction at 0.5 mg/kg,"C. albicans R303; Candida albicans, R303, ip, 24 h, read-out: Difference from 24-h control, Second run, IP 0.5 mg/kg",0.47
same,log reduction at 1.5 mg/kg,"C. albicans R303; Candida albicans, R303, ip, 24 h, read-out: Difference from 24-h control, Second run, IP 1.5 mg/kg",2.11
same,log reduction at 4.5 mg/kg,"C. albicans R303; Candida albicans, R303, ip, 24 h, read-out: Difference from 24-h control, Second run, IP 4.5 mg/kg",3.78
same,Mean log10 CFU/kidneys (±SEM),"C. albicans R303; Fifth run, IP 1 mg/kg, kidneys 24 h after infection",3.06 ± 0.18 log10 CFU/kidneys
same,Mean log10 CFU/kidneys (±SD),"C. albicans R303; First run, IP 1 mg/kg, neutropenic mice, kidneys 24 h after infection",3.37 ± 0.72 log10 CFU/kidneys
same,Mean log10 CFU/kidneys (±SEM),"C. albicans R303; Fourth run, IP 0.5 mg/kg, kidneys 24 h after infection",3.81 ± 0.19 log10 CFU/kidneys
same,Mean log10 CFU/kidneys (±SEM),"C. albicans R303; Fourth run, IP 1.5 mg/kg, kidneys 24 h after infection",1.08 ± 0.08 log10 CFU/kidneys
same,Mean log10 CFU/kidneys (±SEM),"C. albicans R303; Second run, IP 0.5 mg/kg, kidneys 24 h after infection",4.41 ± 0.12 log10 CFU/kidneys
same,Mean log10 CFU/kidneys (±SEM),"C. albicans R303; Second run, IP 1.5 mg/kg, kidneys 24 h after infection",2.77 ± 0.20 log10 CFU/kidneys
same,Mean log10 CFU/kidneys (±SEM),"C. albicans R303; Second run, IP 4.5 mg/kg, kidneys 24 h after infection",1.10 ± 0.38 log10 CFU/kidneys
same,CI,[2],0.0471 ± 0.00192 L/h/kg
same,Vz,[2],0.779 ± 0.0304 L/kg
same,half-life,"[2]; beagle, dog, in vivo, iv, 1.4 mg/kg, read-out: T ½ (converted)",~12 h
same,solubility,[3]; Ethanol (EtOH),> 17.6 mg/mL
same,solubility,[3]; Glycerol,1.5 mg/mL
same,solubility,[3]; PEG400,> 26.8 mg/mL
same,solubility,[3]; Propylene glycol(PG),> 17.2 mg/mL
